Assay results as given in patent publication US9440982B2 (Eolas Therapeutics, Inc., priority 2012, dated 2016).

target: T1, OX1 (Homo sapiens, UniProt O43613); assay: Orexin receptor cell-based functional assay, [Ca2+]i by FLIPR, CHO-OX1 cells; details: Table 2; CHO-OX1 cells, EC90 of OXA; read-out: IC50 Bioactivity OX1
T1 construct: expressed in transfected cells; host or cells: CHO (CHO-OX1, kept under selection antibiotic)
T1 sequence (O43613 1-425): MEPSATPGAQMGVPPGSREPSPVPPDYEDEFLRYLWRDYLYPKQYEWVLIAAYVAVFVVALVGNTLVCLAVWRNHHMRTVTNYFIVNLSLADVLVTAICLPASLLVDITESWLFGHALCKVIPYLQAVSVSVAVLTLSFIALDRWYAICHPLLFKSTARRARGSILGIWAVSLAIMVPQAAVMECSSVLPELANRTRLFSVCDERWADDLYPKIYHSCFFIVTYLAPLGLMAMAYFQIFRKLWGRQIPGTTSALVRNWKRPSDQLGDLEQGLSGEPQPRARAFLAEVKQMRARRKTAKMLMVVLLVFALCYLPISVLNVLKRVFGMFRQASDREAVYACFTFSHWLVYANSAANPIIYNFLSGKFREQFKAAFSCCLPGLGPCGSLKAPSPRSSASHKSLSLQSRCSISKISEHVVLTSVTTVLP
Method: Measurement of [Ca^2+]i using a FLIPR: CHO—OX1 or CHO—OX2 cells are seeded into black-walled clear-base 384-well plates (Costar) at a density of 20,000 cells per well in F12-K medium supplemented with 10% FBS and selection antibiotic (500 ug/ml G418 or 15 ug/ml Blasticidin) and cultured overnight. The cells are incubated with equal volume of calcium4 loading buffer (Molecular Devices, Inc.) containing 2.5 mM probenecid at 37° C. for 30 min, followed by putative OX1 or OX2 receptor antagonists (dose-range 0.1 nM-10 μM) for another 30 min.
The cells are incubated with equal volume of calcium6 loading buffer (Molecular Devices, Inc.) containing 2.5 mM probenecid at 37° C. for 2 h, followed by test compounds (dose-range 0.1 nM-10 μM) for another 30 min.

Row | SMILES | IC50 [µM]
1 | Cc1nc(C(=O)N2C[C@H]3CCC[C@H]3C2COc2ccc(C(F)(F)F)cn2)c(-c2ccc(F)cc2)s1 (mixture of isomers) [Example 101, (5-(4-Fluorophenyl)-2-methylthiazol-4-yl)(1-(((5-(trifluoromethyl)pyridin-2-yl)oxy)methyl)hexahydrocyclopenta[c]pyrrol-2(1H)-yl)methanone] | 3
2 | Cc1nc(C(=O)N2C[C@H]3CCC[C@H]3C2COc2nc3ccccc3o2)c(-c2ccc(F)cc2)s1 (mixture of isomers) [Example 102, (1-((Benzo[d]oxazol-2-yloxy)methyl)hexahydrocyclopenta[c]pyrrol-2(1H)-yl)(5-(4-fluorophenyl)-2-methylthiazol-4-yl)methanone] | > 1
3 | Cc1ccc(-c2ccc(C)nc2)c(C(=O)N2CCC[C@@H](C)[C@H]2CNc2ccc(C(F)(F)F)cn2)c1 (racemic) [Example 105, rac-cis-(3-Methyl-2-(((5-(trifluoromethyl)pyridin-2-yl)amino)methyl)piperidin-1-yl)(5-methyl-2-(6-methylpyridin-3-yl)phenyl)methanone] | 0.109
4 | Cc1ccc(-c2cnc(N3CCN(C)CC3)nc2)c(C(=O)N2CCC[C@@H](C)[C@H]2CNc2ccc(C(F)(F)F)cn2)c1 (racemic) [Example 109, rac-cis-(3-Methyl-2-(((5-(trifluoromethyl)pyridin-2-yl)amino)methyl)piperidin-1-yl)(5-methyl-2-(2-(4-methylpiperazin-1-yl)pyrimidin-5-yl)phenyl)methanone] | > 1
5 | Cc1ccc(-c2ccc(N3CCN(C)CC3)nc2)c(C(=O)N2CCC[C@@H](C)[C@H]2CNc2ccc(C(F)(F)F)cn2)c1 (racemic) [Example 110, rac-cis-(3-Methyl-2-(((5-(trifluoromethyl)pyridin-2-yl)amino)methyl)piperidin-1-yl)(5-methyl-2-(6-(4-methylpiperazin-1-yl)pyridin-3-yl)phenyl)methanone] | > 1
6 | Cc1ccc(-c2cnn(CCN3CCOCC3)c2)c(C(=O)N2CCC[C@@H](C)[C@H]2CNc2ccc(C(F)(F)F)cn2)c1 (racemic) [Example 111, rac-cis-(3-Methyl-2-(((5-(trifluoromethyl)pyridin-2-yl)amino)methyl)piperidin-1-yl)(5-methyl-2-(1-(2-morpholinoethyl)-1H-pyrazol-4-yl)phenyl)methanone] | > 1
7 | C[C@@H]1CCCN(C(=O)c2ccccc2Oc2ccccc2)[C@@H]1CNc1ccc(C(F)(F)F)cn1 (racemic) [Example 118, rac-cis-(3-Methyl-2-(((5-(trifluoromethyl)pyridin-2-yl)amino)methyl)piperidin-1-yl) (2-phenoxyphenyl)methanone] | 0.262
8 | C[C@@H]1CCCN(C(=O)c2ccnn2-c2ccccc2)[C@@H]1CNc1ccc(C(F)(F)F)cn1 (racemic) [Example 119, rac-cis-(3-Methyl-2-(((5-(trifluoromethyl)pyridin-2-yl)amino)methyl)piperidin-1-yl)(1-phenyl-1H-pyrazol-5-yl)methanone] | 0.4
9 | Cc1nc(C(=O)N2CCC[C@@H](C)[C@H]2CNc2nccnc2Cl)c(-c2ccc(F)cc2)s1 (racemic) [Example 121, rac-cis-(2-(((3-Chloropyrazin-2-yl)amino)methyl)-3-methylpiperidin-1-yl)(5-(4-fluorophenyl)-2-methylthiazol-4-yl)methanone] | > 1
10 | C[C@@H]1CCCN(C(=O)c2ccccc2OC(F)(F)F)[C@@H]1CNc1ncc(Cl)cn1 (racemic) [Example 122, rac-cis-(2-(((5-Chloropyrimidin-2-yl)amino)methyl)-3-methylpiperidin-1-yl)(2-(trifluoromethoxy)phenyl)methanone] | 3.5
11 | Cc1nc(C(=O)N2CCC[C@@H](C)[C@H]2CNc2cncc(Cl)n2)c(-c2ccc(F)cc2)s1 (racemic) [Example 123, rac-cis-(2-(((6-Chloropyrazin-2-yl)amino)methyl)-3-methylpiperidin-1-yl)(5-(4-fluorophenyl)-2-methylthiazol-4-yl)methanone] | 3.6

Stronger by IC50, values ahead:

Row | IC50 [µM] | SMILES
12 | 0.076 | CO[C@@H]1CCCN(C(=O)c2nc(C)sc2-c2ccc(F)cc2)[C@@H]1CNc1nc2ccccc2s1 (racemic) [Example 94, rac-cis-(2-((Benzo[d]thiazol-2-ylamino)methyl)-3-methoxypiperidin-1-yl)(5-(4-fluorophenyl)-2-methylthiazol-4-yl)methanone]
13 | 0.018 | Cc1nc(C(=O)N2CCC[C@H](C)[C@H]2CNc2ncc(Cl)cn2)c(-c2ccc(F)cc2)s1 (racemic) [Example 96, rac-trans-(2-(((5-Chloropyrimidin-2-yl)amino)methyl)-3-methylpiperidin-1-yl)(5-(4-fluorophenyl)-2-methylthiazol-4-yl)methanone]
14 | 0.009 | Cc1ccc(-n2nccn2)c(C(=O)N2CCC[C@@H](C)[C@H]2CNc2ncc(C(F)(F)F)cn2)c1 (racemic) [Example 97, rac-cis-(3-Methyl-2-(((5-(trifluoromethyl)pyrimidin-2-yl)amino)methyl)piperidin-1-yl)(5-methyl-2-(2H-1,2,3-triazol-2-yl)phenyl)methanone]
15 | 0.008 | Cc1nc(C(=O)N2C[C@H]3CCC[C@H]3C2CNc2nc3ccccc3o2)c(-c2ccc(F)cc2)s1 (mixture of isomers) [Example 100, (1-((Benzo[d]oxazol-2-ylamino)methyl)hexahydrocyclopenta[c]pyrrol-2(1H)-yl)(5-(4-fluorophenyl)-2-methylthiazol-4-yl)methanone]
16 | 0.001 | Cc1ccc(-c2cccnc2)c(C(=O)N2CCC[C@@H](C)[C@H]2CNc2ccc(C(F)(F)F)cn2)c1 (racemic) [Example 104, rac-cis-(3-Methyl-2-(((5-(trifluoromethyl)pyridin-2-yl)amino)methyl)piperidin-1-yl) (5-methyl-2-(pyridin-3-yl)phenyl)methanone]
17 | 0.04 | Cc1ccc(-c2ccncc2)c(C(=O)N2CCC[C@@H](C)[C@H]2CNc2ccc(C(F)(F)F)cn2)c1 (racemic) [Example 106, rac-cis-(3-Methyl-2-(((5-(trifluoromethyl)pyridin-2-yl)amino)methyl)piperidin-1-yl)(5-methyl-2-(pyridin-4-yl)phenyl)methanone]
18 | 0.078 | Cc1ccc(-c2cncnc2)c(C(=O)N2CCC[C@@H](C)[C@H]2CNc2ccc(C(F)(F)F)cn2)c1 (racemic) [Example 107, rac-cis-(3-Methyl-2-(((5-(trifluoromethyl)pyridin-2-yl)amino)methyl)piperidin-1-yl) (5-methyl-2-(pyrimidin-5-yl)phenyl)methanone]
19 | 0.013 | Cc1ccc(-c2ccnn2C)c(C(=O)N2CCC[C@@H](C)[C@H]2CNc2ccc(C(F)(F)F)cn2)c1 (racemic) [Example 108, rac-cis-(3-Methyl-2-(((5-(trifluoromethyl)pyridin-2-yl)amino)methyl)piperidin-1-yl)(5-methyl-2-(1-methyl-1H-pyrazol-5-yl)phenyl)methanone]
20 | 0.017 | Cc1ccc(-c2ncccn2)c(C(=O)N2CCC[C@@H](C)[C@H]2CNc2ccc(C(F)(F)F)cn2)c1 (racemic) [Example 112, rac-cis-(3-Methyl-2-(((5-(trifluoromethyl)pyridin-2-yl)amino)methyl)piperidin-1-yl)(5-methyl-2-(pyrimidin-2-yl)phenyl)methanone]
21 | 0.025 | Cc1ccc(-c2ncco2)c(C(=O)N2CCC[C@@H](C)[C@H]2CNc2ccc(C(F)(F)F)cn2)c1 (racemic) [Example 113, rac-cis-(3-Methyl-2-(((5-(trifluoromethyl)pyridin-2-yl)amino)methyl)piperidin-1-yl)(5-methyl-2-(oxazol-2-yl)phenyl)methanone]
22 | 0.01 | Cc1ccc(-n2ccnn2)c(C(=O)N2CCC[C@@H](C)[C@H]2CNc2ccc(C(F)(F)F)cn2)c1 (racemic) [Example 115, rac-cis-(3-Methyl-2-(((5-(trifluoromethyl)pyridin-2-yl)amino)methyl)piperidin-1-yl)(5-methyl-2-(1H-1,2,3-triazol-1-yl)phenyl)methanone]
23 | < 0.1 | Cc1ccc(-n2ccnc2)c(C(=O)N2CCC[C@@H](C)[C@H]2CNc2ccc(C(F)(F)F)cn2)c1 (racemic) [Example 116, rac-cis-(2-(1H-Imidazol-1-yl)-5-methylphenyl)(3-methyl-2-(((5-(trifluoromethyl)pyridin-2-yl)amino)methyl)piperidin-1-yl)methanone]
24 | 0.038 | Cc1ccc(-n2cncn2)c(C(=O)N2CCC[C@@H](C)[C@H]2CNc2ccc(C(F)(F)F)cn2)c1 (racemic) [Example 117, rac-cis-(3-Methyl-2-(((5-(trifluoromethyl)pyridin-2-yl)amino)methyl)piperidin-1-yl)(5-methyl-2-(1H-1,2,4-triazol-1-yl)phenyl)methanone]
25 | < 0.1 | O=C(NCC1C2CCC(CC2)N1C(=O)c1ccccc1-c1ccccc1)c1cccc2cccnc12 (racemic) [Example 140, N-(((1s,4s)-2-([1,1′-Biphenyl]-2-carbonyl)-2-azabicyclo[2.2.2]octan-3-yl)methyl)quinoline-8-carboxamide]
